Series [1] in a line: Isomer ratios under dark and at photostationary states by 1H NMR. The format is physicochemical. The settings on record: for PSS isomer ratio, cis, irradiation at 710 nm (PSS710): lowest estimation because of fast thermal relaxation. Here is the method: ^1H NMR spectroscopy was employed to evaluate the photo-switching efficiency of 10 in CD2Cl2 (0.53 mM).
[…] The LEDs were affixed in a custom irradiation chamber fitted with a cooling fan to maintain ambient temperature. The light intensities at 430 and 600 nm were determined using chemical actinometry^S1 and a Thorlabs optical power meter, respectively. Photoisomerization quantum yields were measured by monitoring the proton integral change in trans/cis isomers after 430 and 600 nm irradiation for 2 and 20 s, respectively. Each quantum yield measurement was repeated three times under the same conditions. The photostationary states (PSS) were determined upon continuous irradiation until no further isomerization was observed using ^1H NMR spectroscopy. PBS buffer is an aqueous solution prepared by dissolving Na2HPO4 (1.420 g), KH2PO4 (0.245 g) NaCl (8.007 g) and KCl (0.201 g) in 1 L deionized water.

Series [2] is described as follows: Stability to reduction by glutathione, 10 mM GSH in acetonitrile:PBS buffer (1:1). The format is physicochemical. The conditions noted are these: for degradation half-life with GSH: acetonitrile:PBS (1:1) with 10 mM GSH, 25° C. Here is the method: (§1) The stability of the switches in an aqueous environment was tested by conducting multiple switching cycles (10 cycles shown in FIG. 22a) of 4 in an acetonitrile:PBS buffer (1:1) mixed solvent system. These experiments were conducted by irradiating the sample using 710 nm light, followed by thermal relaxation under dark. […] The stability of switch 4 to reduction by glutathione (GSH) was also tested. The switch was incubated in 10 mM reduced glutathione in acetonitrile:PBS buffer (1:1) solution.

The nature of series [3]: Thermal cis→trans relaxation followed by 1H NMR in CD2Cl2. The format is physicochemical. The conditions noted are these: CD2Cl2 at 294 K, starting from PSS710. From the text: Unaltered CD2Cl2 solution of compound 4 in a quartz NMR tube was irradiated at 710 nm until its photostationary state was reached.
Series [4] in a line: Stability (hydrolysis) in acetonitrile:PBS buffer (1:1), followed by UV-Vis. The format is physicochemical. The settings on record: acetonitrile:PBS (1:1), 25° C. The procedure: as §1
All reagents and starting materials were purchased from commercial vendors and used without further purification. Column chromatography was performed on silica gel (Silicycle, 230-400 mesh). The melting points were measured on an Electrothermal 9100 instrument in open capillary tubes without thermometer correction. Deuterated solvents were purchased from Cambridge Isotope Laboratories and used as received. ^1H NMR and ^13C NMR spectra were recorded on a 500 MHz spectrometer, with working frequencies of 499.87 MHz for ^1H nuclei and 125.7 MHz for ^13C nuclei, respectively. ^19F NMR spectra were recorded on a 300 MHz spectrometer, with working frequency of 282.2 MHz for ^19F nuclei. Chemical shifts are expressed in ppm relative to tetramethylsilane, using the residual solvent peak as a reference standard. GC-MS spectra were measured on a Shimadzu Gas Chromatograph/Mass Spectrometer (GCMS-QP2010Plus). UV-Vis spectra were recorded on a Shimadzu UV-Vis spectrophotometer (UV-1800). Irradiation experiments were conducted with sufficient stirring using a Newport mercury lamp (67005-414) equipped with a Jarrell-Ash light monochromator. The 710 nm Near IR light source was built with appropriate LED light bulbs (LED710-lau AlGaAs Infrared LEDs purchased from Roithner Lasertechnik GmbH). PBS buffer is an aqueous solution prepared with 11.9 mM sodium phosphate (pH 7.3-7.4), 137 mM NaCl and 2.7 mM KCl.

Series [5] in a line: Thermal cis→trans isomerization kinetics followed by UV/Vis in CH2Cl2. The settings on record: deoxygenated CH2Cl2, 294 K, starting from cis PSS, average of three measurements.
Method: The thermal isomerization process was monitored by measuring the change in absorption intensity at 480 nm as a function of time (at 1 min intervals).
The thermal isomerization process was monitored by measuring the change in absorption intensity at 594 nm as a function of time (at 1 min intervals).
Series [6] is described as follows: Reversibility of photoswitching over repeated irradiation cycles. The settings on record: CH2Cl2, alternating visible light irradiation. It counts as physicochemical. The source says: The photoisomerization of Compound 1 was studied extensively by UV/vis (FIG. 1) spectroscopy. When stored in the dark, Compound 1 adopts its thermodynamically stable trans form that has an absorption maximum (λmax) at 530 nm (ε=8026 M^−1 cm^−1). Upon irradiation at 570 nm, the cis form (λmax=480 nm; £=7792 M^−1 cm^−1) becomes dominant, accompanied by a sharp color change of the solution from bright purple to light orange. The process is also accompanied by changes in the intensity of bands at higher energies (λmax=340 and 264 nm). Irradiation at 450 nm drives the system back to its trans form. […] The trans/cis isomerization can be activated solely by the use of visible light and there is no need for UV light.
The synthesis of the azo-BF2 complex 10 started from the hydrazone-based switch,^18 followed by the coupling reaction with BF3.OEt2^19 (Scheme 7). The product was fully characterized using NMR spectroscopy and mass spectrometry (FIGS. 62-76). […] Upon irradiation with a 600 nm light source, E to Z isomerization takes place (isosbestic points at 318, 406, and 508 nm) leading to a new band with a λmax at 501 nm, and e of 11209 M^−1·cm^−1 (FIGS. 58 and 81). The isomerization is accompanied with a significant color change of the solution from purple to dark orange (FIG. 58b).

Where “and” joins values, the source holds several entries; their conditions need not be identical. Identical values can stand only once.

For the compound `COc1ccc(N=[N+]2C(C#N)=C3C=Cc4ccccc4N3[B-]2(F)F)cc1` [Compound 2], the “trans isomer ratio under dark” value in series [1] came out at 93%. For the same compound, in series [1] (CD2Cl2 at 294 K), the “PSS isomer ratio, cis, irradiation at 630 nm (PSS630)” value is 96% and 96±1%; the “PSS isomer ratio, trans, irradiation at 490 nm (PSS490)” value is 92% and 92±1%.

On to `CN(C)c1ccc(N=[N+]2C(C#N)=C3C=Cc4ccccc4N3[B-]2(F)F)cc1` [Compound 4], for which the “stability to reduction by glutathione (in words)” value in series [2] (10 mM reduced glutathione in acetonitrile:PBS buffer (1:1)) is given as “No obvious difference was observed in its degradation half-life”. Also, in series [2], the “degradation half-life with GSH” value is 2.5 h. For the same compound, the “trans isomer ratio under dark” value in series [1] was 97%. Also, in series [1] (CD2Cl2 at 294 K), the “PSS isomer ratio, cis, irradiation at 710 nm (PSS710)” value (shortened to “PSS isomer ratio, cis … (PSS710)”) is 63% and 63±1%. Besides, the “Half-life, cis→trans thermal relaxation” value in series [3] amounted to 0.0694 h. Moreover, the “degradation (hydrolysis) half-life” value in series [4] is 2.3 h.

For `COc1ccc(N=[N+]2C(C#N)=C3C=Cc4ccccc4N3[B-]2(F)F)c(OC)c1` [Compound 3], the “trans isomer ratio under dark” value in series [1] amounted to 58%. In series [1] (CD2Cl2 at 294 K), the “PSS isomer ratio, cis, irradiation at 640 nm (PSS640)” value was 79% and 79±1%; the “PSS isomer ratio, trans, irradiation at 490 nm (PSS490)” value was 56% and 56±1%. For the same compound, the “half-life (t1/2) of the cis→trans isomerization” value in series [5] is 13.4 h.

As for `CN1CCN(c2ccc(N=[N+]3C(C#N)=C4C=Cc5ccccc5N4[B-]3(F)F)cc2)CC1` [Compound 6], the “degradation half-life with GSH” value in series [2] was 1.3 h. The “trans isomer ratio under dark” value in series [1] stood at 94%. Also, the “PSS isomer ratio, cis … (PSS710)” value in series [1] (CD2Cl2 at 294 K) is 49% and 49±1%. In addition, the “Half-life, cis→trans thermal relaxation” value in series [3] was determined as 0.111 h. Besides, the “degradation (hydrolysis) half-life” value in series [4] was 1.2 h.

Turning to `N#CC1=C2C=Cc3ccccc3N2[B-](F)(F)[N+]1=Nc1ccccc1` [Compound 1], the “reversibility / degradation on repeated photoisomerization (in words)” value in series [6] was “no degradation”.

On to `N#CC1=C2C=Cc3ccccc3N2[B-](F)(F)[N+]1=Nc1ccc(N2CCOCC2)cc1` [Compound 7], for which the “degradation half-life with GSH” value in series [2] was found to be 1.0 h. For the same compound, in series [1], the “trans isomer ratio under dark” value amounted to 97%. In addition, the “PSS isomer ratio, cis … (PSS710)” value in series [1] (CD2Cl2 at 294 K) was 83% and 82±1%. In addition, the “Half-life, cis→trans thermal relaxation” value in series [3] was 0.25 h. Besides, the “degradation (hydrolysis) half-life” value in series [4] is recorded as 0.9 h.

For `N#CC1=C2C=Cc3ccccc3N2[B-](F)(F)[N+]1=Nc1ccc(N2CCCCC2)cc1` [Compound 5], the “degradation half-life with GSH” value in series [2] is reported as 2.1 h. Moreover, the “trans isomer ratio under dark” value in series [1] was 98%. In series [3], the “Half-life, cis→trans thermal relaxation” value was determined as 0.0417 h. Moreover, the “degradation (hydrolysis) half-life” value in series [4] is 2 h.

The values above are taken from patent US10239893B2, “Controlling the isomerization rate of Azo-BF2 switches using aggregation” (THE TRUSTEES OF DARTMOUTH COLLEGE, priority 2013, dated 2019).
